Reference: US7226911B2, “Hair keratin-associated proteins” (Keio University, priority 2001, dated 2007)

Experiments:
[1] = test system: mouse hair-matrix cells; assay: action on isolated mouse hair-matrix cells (energy metabolism activity in the mitochondria; change of form); assay type: cell-based; details: during peptide treatment
[2] = test system: hair cycle of mouse body hair; assay: effect of the functional peptide to the hair cycle of mouse body hair; assay type: in vivo; details: C3H/He mouse, applied to skin, 1% peptide
Excerpt: For the application of KAPs as hair growth agent, there is a possible problem for permeability to tissues in an intact size. Therefore, from the point of view of being a hair constituent element, the minimum repeat unit on KAP sequences was searched and designing of peptides was attempted with the crosslinking within the tissues as a goal. After preparing alignment from the primary sequence of amino acid obtained in Example 7, repeat motifs are searched, and 2 functional peptides, namely mouse high sulfur type KAPs: N′-SCCXPSCCXP-C′ (X: Q, V, R, I) [Seq. ID No. 2031, and mouse high G/Y type KAPs: N′-YGGXGYGSGY-C′ (X: Y, L, F)[Seq. ID No. 204] were designed. By using these functional peptides, the action to hair formation and hair-matrix cells was evaluated. […] Peptide solvent (Plasebo) was used as a negative control, and […] MINOXIDIL was used as a positive control. […] The effect was significant compared not only with peptide solvent as a negative control (FIG. 30), but also with MINOXIDIL of the same concentration, being a positive control (FIG. 31).

Substance: N′-YGGXGYGSGY-C′ (X: Y, L, F) [high G/Y type peptide]
- change of form of hair-matrix cells [1]: a change of form of hair-matrix cells associated with the differentiation was observed
- effect to the hair cycle of mouse body hair (duration until hair coat / formation of body hair) [2]: shortening effect of the duration until hair coat was observed
